According to patent US7053118B1, “Lactone compounds and methods of use” (Harbor Branch Oceanographic Institution, Inc., priority 2003, dated 2006):

Tests used:
Type in all cases: cell-based
[1] = tested on: P388 murine leukemia cell line; experiment: Antiproliferative MTT assay, P388 cell line; settings: P-388 cells, 48-h exposure
Experimental: (§1) Extracts and compounds were analyzed as to their effects on proliferation of A549 human adenocarcinoma, PANC-1 human pancreatic and P388 murine leukemia cell lines. P388 cells were obtained from Dr. R. Camalier, National Cancer Institute, Bethesda, Md., and A549 and PANC-1 cells were obtained from American Type Culture Collection, Rockville, Md. All cell lines were maintained in Roswell Park Memorial Institute (RPMI) medium 1640 supplemented with 10% fetal bovine serum. All cell lines are cultured in plastic tissue culture flasks and kept in an incubator at 37° C. in humidified air containing 5% CO2. Prior to testing, antibiotic-free stock cultures of each of the cell lines were subcultured to 10^6 cells/ml by dilution in fresh growth medium at 2 to 3 day intervals.
(§2) To assess the antiproliferative effects of extracts and compounds against the P388 cell line, 200 μl cultures (96-well tissue culture plates, Nunc, Denmark) are established at 1×10^5 cells/ml in drug-free medium or medium containing the test agent at 10.0, 1.0, 0.10 and 0.010 μg/ml. Solvent for all dilutions ethanol. All experimental cultures are initiated in medium containing Gentamycin sulfate (50 μg/ml; Schering Corporation, Kenilworth, N.J.). […]

[2] = tested on: PANC-1 human pancreatic cell line; experiment: Antiproliferative MTT assay, PANC-1 cell line; settings: PANC-1 cells, additional 48 hr exposure prior to MTT addition
Experimental: as §1
as §2, with “ethanol.” for “ethanol. All experimental cultures are initiated in medium containing Gentamycin sulfate (50 μg/ml; Schering Corporation, Kenilworth, N.J.).”
(§3) Similar procedures are utilized for A549 and PANC-1 cells which require an additional 48 hr exposure prior to MTT addition. Results are expressed as percent inhibition compared to the negative (no drug) control. […]

[3] = tested on: A549 human adenocarcinoma cell line; experiment: Antiproliferative MTT assay, A549 cell line; settings: A549 cells, additional 48 hr exposure prior to MTT addition
Experimental: as §1
as §2, with “ethanol.” for “ethanol. All experimental cultures are initiated in medium containing Gentamycin sulfate (50 μg/ml; Schering Corporation, Kenilworth, N.J.).”
as §3

Activity (IC50 μg/ml) [1]: 1.09 µg/mL | Activity (IC50 μg/ml) [2]: 3.78 µg/mL | Activity (IC50 μg/ml) [3]: 5.0 µg/mL
SMILES: C=C1C[C@@](C)(/C=C/C=C/CCCCCCCC)OC1=O [plakolide A]
